Results on 11 compounds are retold here after patent US5486597A, “Tetrapeptide derivatives and analogues” (James Black Foundation Limited, priority 1990, dated 1996).

Common to all, as to assay type: cell-based
For experiment [1], the target named is T1, gastrin receptor (Cavia porcellus, UniProt H0VZC5).
T1 construct: Strips of muscle (approximately 2.5 cm by 1 cm) are removed from the proximal area of the stomach; from tissue; host or cells: guinea-pig proximal stomach (fundus) muscle strips
T1 sequence (H0VZC5 1-426): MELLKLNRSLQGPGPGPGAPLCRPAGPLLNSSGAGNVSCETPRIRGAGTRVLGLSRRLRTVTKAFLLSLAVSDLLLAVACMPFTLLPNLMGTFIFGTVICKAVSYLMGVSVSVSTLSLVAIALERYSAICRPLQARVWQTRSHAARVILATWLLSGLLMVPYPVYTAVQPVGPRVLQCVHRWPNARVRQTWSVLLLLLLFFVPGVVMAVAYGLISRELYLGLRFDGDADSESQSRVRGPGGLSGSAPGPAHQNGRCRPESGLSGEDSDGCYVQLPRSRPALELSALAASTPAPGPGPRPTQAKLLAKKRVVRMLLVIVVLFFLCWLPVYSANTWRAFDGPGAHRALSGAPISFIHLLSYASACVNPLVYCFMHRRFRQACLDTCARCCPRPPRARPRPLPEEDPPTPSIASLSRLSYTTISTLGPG
As to the kind of experiment: guinea-pig fundus assay for gastrin activity (stomach muscle strips). Conditions: 10^-8 M devazepide present, 60 minute equilibration, agonist e.g. pentagastrin, standard errors less than 5%. On the procedure:
The compounds were assayed for gastrin activity using the mouse stomach assay as described by Black, J. W. and Shankley, N. P., Br. J. Pharmacol., 86, 571-579, (1985), and also in the guinea-pig fundus assay, as follows:
The stomach is removed from a male Dunkin-Hartley guinea-pig (250-500 g), and Krebs solution is injected through a hypodermic needle under the top stomach muscle layer. The composition (mM) of the Krebs solution is as follows: Na^+ 143, K^+ 5.9, Ca^2+ 2.5, Mg^2+ 1.2, Cl^- 128, H2 PO4^- 2.2, HCO3^- 24.9, SO4^2- 1.2, dextrose 10. Strips of muscle (approximately 2.5 cm by 1 cm) are removed from the proximal area of the stomach (one from each side) and tied with cotton thread to isotonic transducers under an initial loading tension of 0.35 g.
The preparation is immersed in 20 mls of Krebs solution containing 10^-8 M devazepide (25 μl 2×10^-3 M devazepide/100% DMF solution in 5 dm^3 Krebs) and gassed with 95% O2 /5% CO2. The function of the devazepide is to block possible effects at CCK receptors present in the tissue.
The preparation is washed twice over a 60 minute period then 10 mM KCl is added. At 90 minutes, test compounds (ie. potential antagonists) are added and a further 60 minute equilibration period allowed. After this time, cumulative agonist (e.g. pentagastrin) dose-response curves are constructed.

In experiment [2] the target is T2, gastrin receptor (Mus musculus, UniProt P56481).
T2 construct: assayed for gastrin activity using the mouse stomach assay; from tissue; host or cells: isolated mouse stomach
T2 sequence (P56481 1-453): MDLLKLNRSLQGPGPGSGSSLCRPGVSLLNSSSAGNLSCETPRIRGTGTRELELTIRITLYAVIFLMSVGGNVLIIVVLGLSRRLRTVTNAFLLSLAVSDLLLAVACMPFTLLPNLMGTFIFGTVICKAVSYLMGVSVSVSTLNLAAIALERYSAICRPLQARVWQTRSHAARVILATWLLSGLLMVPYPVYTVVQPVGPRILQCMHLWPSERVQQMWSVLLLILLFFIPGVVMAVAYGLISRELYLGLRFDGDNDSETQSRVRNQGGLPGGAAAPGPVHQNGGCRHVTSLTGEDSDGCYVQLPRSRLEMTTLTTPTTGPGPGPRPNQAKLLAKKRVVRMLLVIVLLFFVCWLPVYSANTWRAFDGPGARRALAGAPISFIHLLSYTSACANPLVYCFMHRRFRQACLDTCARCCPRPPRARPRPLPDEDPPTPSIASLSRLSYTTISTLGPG
As to the kind of experiment: mouse stomach assay for gastrin activity (isolated stomach, acid secretion). The settings on record: for Kb / pKB mouse stomach: isolated mouse stomach assay, gastrin antagonism, standard errors less than 5%; for Kb: read-out: pKB mouse stomach (converted); for Acid seretion at 10^-5 M test compound, relative to pentagastrin (%): mouse stomach, NS = not significant. On the procedure: The compounds were assayed for gastrin activity using the mouse stomach assay as described by Black, J. W. and Shankley, N. P., Br. J. Pharmacol., 86, 571-579, (1985), and also in the guinea-pig fundus assay, as follows: […]

Experiment [3] concerns the target T3, cholecystokinin receptors (Cavia porcellus, UniProt Q63931).
T3 construct: Isolated, strip preparations were prepared from gall-bladders removed from male Dunkin-Hartley guinea-pigs; from tissue; host or cells: guinea-pig gall-bladder strips
T3 sequence (Q63931 1-430): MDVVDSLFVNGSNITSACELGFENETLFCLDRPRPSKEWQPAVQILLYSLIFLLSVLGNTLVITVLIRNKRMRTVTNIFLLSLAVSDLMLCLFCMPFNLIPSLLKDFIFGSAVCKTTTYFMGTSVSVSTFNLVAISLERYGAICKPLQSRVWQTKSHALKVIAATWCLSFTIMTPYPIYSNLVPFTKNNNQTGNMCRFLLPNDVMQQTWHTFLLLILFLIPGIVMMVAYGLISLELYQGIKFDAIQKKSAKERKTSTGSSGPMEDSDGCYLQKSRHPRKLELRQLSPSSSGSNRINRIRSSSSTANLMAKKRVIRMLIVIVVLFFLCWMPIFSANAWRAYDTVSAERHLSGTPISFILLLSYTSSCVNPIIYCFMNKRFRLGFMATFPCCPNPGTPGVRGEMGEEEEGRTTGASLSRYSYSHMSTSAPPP
Put plainly: CCK-antagonist activity in isolated guinea-pig gall-bladder strip preparations. Conditions: guinea-pig gall-bladder strips; CCK-8 as agonist; test compound incubated for 60 minutes; standard errors less than 5%. Summed up: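 Male Dunkin-Hartley guinea-pig gall-bladder strips under 1 g isometric tension in Krebs (0.5 mM Ca²⁺), 37° C, 95% O2/5% CO2, stabilised 90 min. Cumulative CCK-8 concentration-effect curves without and with test compound (60 min preincubation); antagonism expressed as […] by modified competitive analysis.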

SMILES strings stand for the structures. Non-standard residues stand in square brackets, D forms with d. Residues, ends and D or L forms follow the SMILES beside them. *: point of attachment. Trp(5-F) = N[C@@H](Cc1c[nH]c2ccc(F)cc12)C(=O)O; 2Nal = N[C@@H](Cc1ccc2ccccc2c1)C(=O)O; Boc = CC(C)(C)OC(=O)*

For the compound `COc1ccc2[nH]cc(CC(NC(=O)OC(C)(C)C)C(=O)N[C@@H](Cc3ccc4ccccc4c3)C(=O)N[C@@H](CC(=O)O)C(=O)N[C@@H](Cc3ccccc3)C(N)=O)c2c1` (mixture of isomers) [Example 19, N-t-Butyloxycarbonyl-5-methoxy-D,L-tryptophyl-L-3-(2-naphthyl)alanyl-L-aspartyl-L-phenylalaninamide], the Kb was 1.58 µM at gastrin receptor [1], 5.01 µM at gastrin receptor [2] and 0.501 µM in experiment [3]. Moreover, at gastrin receptor [2], the “Acid seretion at 10^-5 M test compound, relative to pentagastrin (%)” value (from here on “Acid seretion … relative to pentagastrin (%)”) is 80%.

In the case of `CC(C)(C)OC(=O)N[C@@H](Cc1c[nH]c2ccccc12)C(=O)N[C@@H](Cc1ccc2ccccc2c1)C(=O)N[C@@H](CC(=O)O)C(=O)N[C@@H]1CCC[C@H]1c1ccccc1` (single isomer, unassigned; diastereomer 1) [Example 31, N-t-Butyloxycarbonyl-L-tryptophyl-L-3-(2-naphthyl)alanyl-L-aspartyl-trans-2-phenylcyclopentylamide (diastereomer 1)], at gastrin receptor [1], the pKB – broadly, −log10 of the KB, conventionally taken in molar units – was 6.1. Further, on gastrin receptor [2], the pKB mouse stomach is 5.0 and the “Acid seretion … relative to pentagastrin (%)” value is listed as 40%. In addition, the pKB in experiment [3] is 6.5.

As to `CC(C)(C)OC(=O)N[C@@H](Cc1c[nH]c2ccccc12)C(=O)N[C@@H](Cc1ccc2ccccc2c1)C(=O)N[C@@H](CC(=O)O)C(=O)N[C@@H]1CCC[C@@H]1c1ccccc1` (single isomer, unassigned; diastereomer 1) [Example 33, N-t-Butyloxycarbonyl-L-tryptophyl-L-3-(2-naphthyl)alanyl-L-aspartyl-cis-2-phenylcyclopentylamide (diastereomer 1)], the negative logarithm of the KB (pKB) at gastrin receptor [1] turned out to be 6.2; in experiment [3], 7.0. The compound also gave a pKB mouse stomach at gastrin receptor [2] of 5.2.

Take `CC(C)(C)OC(=O)N[C@@H](Cc1c[nH]c2ccccc12)C(=O)N[C@@H](Cc1ccc2ccccc2c1)C(=O)N[C@@H](CC(=O)O)C(=O)N[C@@H]1CCC[C@@H]1c1ccccc1` (single isomer, unassigned; diastereomer 2) [Example 34, N-t-Butyloxycarbonyl-L-tryptophyl-L-3-(2-naphthyl)alanyl-L-aspartyl-cis-2-phenylcyclopentylamide (diastereomer 2)]: the pKB on gastrin receptor [1] was 5.8; in experiment [3] it was 6.9. Also, at gastrin receptor [2], the pKB mouse stomach was found to be 6.5. Besides, the “Acid seretion … relative to pentagastrin (%)” value at gastrin receptor [2] stood at 40%.

Take `CC(C)(C)OC(=O)N[C@@H](Cc1c[nH]c2ccccc12)C(=O)N[C@@H](Cc1ccc2ccccc2c1)C(=O)N[C@@H](CC(=O)O)C(=O)N[C@@H](Cc1ccccc1)C(N)=O` [Example 1, N-t-Butyloxycarbonyl-L-tryptophyl-L-3-(2-naphthyl)alanyl-L-aspartyl-L-phenylalaninamide] (Boc-W[2Nal]DF-NH2): the Kb is 3.16 µM on gastrin receptor [1], 0.631 µM on gastrin receptor [2] and 5.01 µM in experiment [3]. Also, the “Acid seretion … relative to pentagastrin (%)” value at gastrin receptor [2] stood at 65%.

`COc1ccc(C[C@H](NC(=O)[C@H](CC(=O)O)NC(=O)[C@H](Cc2ccc3ccccc3c2)NC(=O)[C@H](Cc2c[nH]c3ccccc23)NC(=O)OC(C)(C)C)C(N)=O)cc1` [Example 7, N-t-Butyloxycarbonyl-L-tryptophyl-L-3-(2-naphthyl)alanyl-L-aspartyl-L-(4-methoxyphenylalanin)amide] (Boc-W[2Nal]DY(Me)-NH2): the pKB is 5.3 at gastrin receptor [1] and 5.8 in experiment [3]. The same compound came in with a pKB mouse stomach at gastrin receptor [2] of 5.7.

Turning to `CC(C)(C)OC(=O)N[C@@H](Cc1c[nH]c2ccccc12)C(=O)N[C@@H](Cc1ccc2ccccc2c1)C(=O)N[C@@H](CC(=O)O)C(=O)NCCc1ccc(Cl)cc1` [Example 8, N-t-Butyloxycarbonyl-L-tryptophyl-L-3-(2-naphthyl)alanyl-L-aspartyl-(4-chlorophenethyl)amide], the pKB at gastrin receptor [1] is on record as 5.0. Further, on gastrin receptor [2], the pKB mouse stomach is 5.9 and the “Acid seretion … relative to pentagastrin (%)” value came to 28%.

On to `COc1ccc(CCNC(=O)[C@H](CC(=O)O)NC(=O)[C@H](Cc2ccc3ccccc3c2)NC(=O)[C@H](Cc2c[nH]c3ccccc23)NC(=O)OC(C)(C)C)cc1` [Example 10, N-t-Butyloxycarbonyl-L-tryptophyl-L-3-(2-naphthyl)alanyl-L-aspartyl-(4-methoxy)phenethylamide], for which the negative logarithm of the KB (pKB) on gastrin receptor [1] is 5.9; in experiment [3], 7.2. The compound further came in with a pKB mouse stomach at gastrin receptor [2] of 6.0.

`CC(C)(C)OC(=O)N[C@@H](Cc1c[nH]c2ccc(F)cc12)C(=O)N[C@@H](Cc1ccc2ccccc2c1)C(=O)N[C@@H](CC(=O)O)C(=O)N[C@@H](Cc1ccccc1)C(N)=O` [Example 18, N-t-Butyloxycarbonyl-5-fluoro-L-tryptophyl-L-3-(2-naphthyl)alanyl-L-aspartyl-L-phenylalaninamide] (Boc-[Trp(5-F)][2Nal]DF-NH2): the Kb at gastrin receptor [1] is 1.26 µM; at gastrin receptor [2], 1.58 µM; in experiment [3], 0.631 µM. Also, on gastrin receptor [2], the “Acid seretion … relative to pentagastrin (%)” value is listed as 54%.

`COc1ccccc1CCNC(=O)[C@H](CC(=O)O)NC(=O)[C@H](Cc1ccc2ccccc2c1)NC(=O)[C@H](Cc1c[nH]c2ccccc12)NC(=O)OC(C)(C)C` [Example 40, N-t-Butyloxycarbonyl-L-tryptophyl-L-3-(2-naphthyl)alanyl-L-aspartyl-2-methoxyphenethylamide] had a pKB on gastrin receptor [1] of 5.8. On gastrin receptor [2], the pKB mouse stomach is 5.2 and the “Acid seretion … relative to pentagastrin (%)” value was found to be 22%. In experiment [3], this compound registered a pKB of 7.1.

Consider `CC(C)(C)OC(=O)N[C@@H](Cc1c[nH]c2ccccc12)C(=O)N[C@@H](Cc1ccc2ccccc2c1)C(=O)N[C@@H](CC(=O)O)C(=O)NCCc1ccc(Cl)c(Cl)c1` [Example 42, N-t-Butyloxycarbonyl-L-tryptophyl-L-3-(2-naphthyl)alanyl-L-aspartyl-3,4-dichlorophenethylamide], for which the pKB at gastrin receptor [1] is listed as 5.3. On gastrin receptor [2], the pKB mouse stomach came out at 5.2 and the “Acid seretion … relative to pentagastrin (%)” value came to 30%. Further, in experiment [3], the pKB is recorded as 6.0.
